Results on one compound are retold here after patent US10774039B2, “Cyclopropene amino acids and methods” (United Kingdom Research and Innovation, priority 2014, dated 2020).

The target in the assay is PylRS/tRNACUA pair (Methanosarcina mazei, UniProt Q8PWY1). In words: Amber suppression of mCherry-TAG-EGFP-HA in HEK293 cells (western blot). The class given is cell-based. Further details: expressed in transfected cells; host or cells: HEK293 (ATCC CRL-1573). Particulars: amber stop codon. The method, then:
Anti-FLAG detected tagged PylRS. FIG. 8B: Specific labelling of mCh-TAG-EGFP-HA (immunoprecipitated from 10^6 cells) with 4a (20 μM in 50 μL PBS, 1 h, RT) confirms the incorporation of 3 into protein in HEK293 cells. FIG. 8C: SORT-M labelling of 3 that is statistically incorporated into newly synthesised proteins across the whole proteome of mammalian cells directed by six different PylRS/PyltRNAXXX (mutants using 0.5 mM 3. Labeling with 4g (20 μM in PBS, 1 h, RT, as above). The amino acids in parentheses are the natural amino acids encoded by the endogenous tRNA bearing the corresponding anti-codon.
HEK293 Cells (ATCC CRL-1573) were plated on 24 well plates and grown to near confluence. The cells were transfected using Lipofectamine 2000 (Invitrogen) with the pMmPylS-mCherry-TAG-EGFP-HA construct and the p4CMVE-U6-PylT construct.^18 After 16 hrs growth with or without 1 mM 3 or with 1 mM 1 the cells were lysed on ice using RIPA buffer (Sigma). The lysates were spun down and the supernatant was added to 4×LDS sample buffer (Life technologies). The samples were run out by SDS-PAGE, transferred to a nitrocellulose membrane and blotted using primary rat anti-HA(clone 3F10, Roche, No. 867 423) and mouse anti-FLAG (clone G191, Abnova, cat. MAB8183), the secondary antibodies were anti-rat (Invitrogen, A11077) and anti-mouse (Cell Signaling Technologies, No. 7076S).
(In general: A western blot detects proteins with antibodies after separation by electrophoresis.)

Chain of PylRS/tRNACUA pair (Q8PWY1 whole entry): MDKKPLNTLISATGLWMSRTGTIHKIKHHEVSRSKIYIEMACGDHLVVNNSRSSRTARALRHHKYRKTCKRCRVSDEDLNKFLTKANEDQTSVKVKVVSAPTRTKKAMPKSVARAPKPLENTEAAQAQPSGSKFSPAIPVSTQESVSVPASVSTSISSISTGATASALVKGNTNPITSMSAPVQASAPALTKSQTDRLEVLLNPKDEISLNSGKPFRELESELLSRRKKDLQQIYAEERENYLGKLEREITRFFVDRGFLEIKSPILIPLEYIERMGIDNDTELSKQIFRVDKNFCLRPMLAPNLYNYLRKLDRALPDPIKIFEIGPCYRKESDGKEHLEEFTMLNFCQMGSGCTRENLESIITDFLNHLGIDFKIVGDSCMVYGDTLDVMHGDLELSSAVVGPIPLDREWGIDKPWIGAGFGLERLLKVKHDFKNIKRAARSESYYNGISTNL

As to `CC1=CC1COC(=O)NCCCC[C@H](N)C(=O)O` (stereo partly drawn) [amino acid 3, N^ε-[((2-methylcycloprop-2-en-1-yl)methoxy)carbonyl]-L-lysine], the “full-length mCherry-EGFP-HA protein expression” value is reported as “detected only in the presence”.
